Assay [1] deals with B cells. Description: B-lymphocyte adhesion and transmigration, MesenFlow assay. The class given is cell-based. Conditions: 30 μg/ml. How it is done:
Flow assays were conducted as described in a previous study (Bradfield, P. F., et al., JAM-C regulates unidirectional monocyte transendothelial migration in inflammation. Blood, 2007. 110(7): p. 2545-55). HUVECs were cultured at 1×10^5 cells/slide on Ibidi 6-chamber slides (80606; Ibidi) before treatment with TNFα (500 U/mL) for 6-10 hours. An individual chamber outlet was then attached to a calibrated pump (74 900; Cole Partner, Vernon Hills, IL) and flow was generated by perfusing wash buffer (M199 with 0.15% BSA) or a monocyte suspension (2.5×10^6 cells/mL) over the HUVEC monolayer. The flow rate was representative of shear rates in small venules (0.05 Pa). Observations made using phase-contrast microscopy (Model: Axiovert 100; Objective: 20×/0.3 NA air; Carl Zeiss) were recorded using a high-resolution camera (D70; Nikon, Zurich, Switzerland). Individual images were recorded every 30 seconds with Nikon capture software (v4.2) and compiled into movie sequences using Adobe Photoshop (CS6) and Image J (v1.5d), allowing analysis of individual monocytes over large areas. The tested compounds, e.g. compounds of the general Formula (I), were maintained at the specified concentration in all wash buffers throughout the course of the experiment. The compounds were preincubated separately on both HUVECs and monocytes 15 minutes prior to flow co-culture. […]

Assay [2] deals with primary human monocytes on TNF-alpha-activated HUVECs. Description: Shear flow assay: monocyte adhesion and transmigration on TNFα-activated HUVECs. In kind it is cell-based. To be noted: for Level of Transmigration Blockage (%) / Monocyte adhesion / inhibition at 30 µM: 30 μM; for Level of Transmigration Blockage (%): monocytes on TNF-activated HUVECs under flow 0.05 Pa; for Monocyte adhesion: flow 0.05 Pa for 30 minutes; for inhibition at 30 µM: Table 2, read-out: monocyte-rolling inhibition. An excerpt:
A flow assay that allows detailed analysis of individual leukocyte interactions with endothelial cells (ECs), described in Bradfield et al. (Bradfield et al., 2016, PloS One, July 21; 11(7); Bradfield et al., 2007, Blood. October 1; 110(7):2545-55) was used for evaluation of the biological effects of the compounds according to the invention. This method allows the determination of the possible effects of the compounds on three major phases in leukocyte migration: the capture of free non-bound leukocytes by endothelium, migration of leukocytes on the endothelium surface, and transendothelial migration (transmigration) of human leukocytes through the HUVECs layer. Post transmigrational events can also be monitored by tracking individual leukocytes. […] Human umbilical vein endothelial cells (HUVECs) were cultivated in the plastic channel of the flow chamber, and human leukocyte were flowed over them using a calibrated pump, allowing monocyte capture, adhesion and migration to be monitored.
Human umbilical vein endothelial cells (HUVEC) were isolated by collagenase treatment of umbilical veins as previously described (Wall, R. T., et al., Factors influencing endothelial cell proliferation in vitro. J Cell Physiol, 1978. 96(2): p. 203-13) and maintained in M199 containing 20% fetal calf serum (FCS), 15 μg/mL endothelial cell growth supplement (Upstate Biotechnology, Lake Placid, NY), 100 μg/mL heparin, 50 μM hydrocortisone, and 10 μg/mL vitamin C. Cells were cultured up to a maximum of passage 5.
Peripheral blood mononuclear cells (PBMCs) were first isolated from blood of healthy donors followed by monocyte purification using a monocyte isolation kit (Miltenyi Biotec, Bergisch Gladbach, Germany). Purity and activity of monocytes were controlled by flow cytometry by labelling with anti-CD14 and anti-CD62L. Only populations of 90% or more double positive cells were used.
Flow assays were conducted as described in a previous study (Bradfield, P. F., et al., JAM-C regulates unidirectional monocyte transendothelial migration in inflammation. Blood, 2007. 110(7): p. 2545-55). HUVECs were cultured at 1×10^5 cells/slide on Ibidi 6-chamber slides (80606; Ibidi) before treatment with TNFα (500 U/mL) for 6-10 hours. An individual chamber outlet was then attached to a calibrated pump (74 900; Cole Partner, Vernon Hills, IL) and flow was generated by perfusing wash buffer (M199 with 0.15% BSA) or a monocyte suspension (2.5×10^6 cells/mL) over the HUVEC monolayer. The flow rate was representative of shear rates in small venules (0.05 Pa). Observations made using phase-contrast microscopy (Model: Axiovert 100; Objective: 20×/0.3 NA air; Carl Zeiss) were recorded using a high-resolution camera (D70; Nikon, Zurich, Switzerland). Individual images were recorded every 30 seconds with Nikon capture software (v4.2) and compiled into movie sequences using Adobe Photoshop (CS6) and Image J (v1.5d), allowing analysis of individual monocytes over large areas. The tested compounds, e.g. compounds of the general Formula (I), were maintained at the specified concentration in all wash buffers throughout the course of the experiment. The compounds were preincubated separately on both HUVECs and monocytes 15 minutes prior to flow co-culture. HUVEC monolayers were washed for 10 minutes prior to a compound wash-in step to allow for this preincubation period. The monocyte suspension was then perfused over HUVECs for 4 minutes followed by 20 to 60 minutes with wash buffer. Time-lapse recording was started upon monocyte first-contact with the monolayer. Monocyte adhesion data are presented as the total number of monocytes per unit field. Transmigration events are presented as a percentage of total monocytes captured from flow per unit field. All experiments were carried out using quadruplicate fields and are presented as a mean value (±SEM).
A timeline is shown to represent the positioning and timing of an individual monocyte during movie analysis (marked ‘Timeline’). […]

Here are results for 6 molecules from US12252472B1, “Barbituric acid derivatives, their preparation and use thereof as leukocyte transmigration inhibitors and for treating inflammatory diseases, autoimmune diseases and cancer” (BAR-ILAN UNIVERSITY, priority 2017, dated 2025).

“Tysabri®: an antibody against alpha 4 integrin, used as a positive control [reference compound]”: the “number of transmigrated B cells” value in assay [1] is “no net effect”.
As to `O=C1NC(=O)C(=Cc2ccccc2OCc2cccc(C(=O)O)c2)C(=O)N1` [Formula 6, 3-((2-((2,4,6-trioxo-tetrahydropyrimidin-5(6H)-ylidene)methyl)phenoxy)methyl)benzoic acid], the “Level of Transmigration Blockage (%)” value in assay [2] is 78%.
As to `COC(=O)c1ccc(COc2c(C)cc(C=C3C(=O)NC(=O)NC3=O)cc2C)cc1` [Formula 4, Methyl 4-((2,6-dimethyl-4-((2,4,6-trioxotetrahydro-pyrimidin-5(2H)ylidene)methyl)phenoxy)methyl) benzoate], the “Level of Transmigration Blockage (%)” value in assay [2] was found to be 75%.
By inhibition is commonly meant the percentage by which the read-out fell short of the control. A word on the IC50: it is the concentration at which inhibition is half-maximal. For the molecule `O=C1NC(=O)C(=Cc2c3ccccc3cc3ccccc23)C(=O)N1` [Formula 10, 5-(anthracen-9-ylmethylene)pyrimidine-2,4,6(1H,3H,5H)-trione], in assay [2], the Monocyte adhesion result is reported as “unaffected” and the “Level of Transmigration Blockage (%)” value is 92%. Further, the inhibition at 30 µM in assay [2] (Homo sapiens, HUVEC) is greater than 90%. In assay [2] (Homo sapiens, HUVEC, flow 0.05 Pa, n=3), this molecule yielded an IC50 of 300 nM. In assay [2] (Homo sapiens, HUVEC, monocyte transmigration inhibition, read-out: maximal efficacy), the Emax came to 40%. In addition, the “concentration below which not active on monocyte transmigration” value in assay [2] (dose response, 100 μM to 3 nM) is “below 30 nM”. Moreover, the monocyte transmigration entry in assay [2] (dose response, concentrations higher than 30 nM) was “partial effect”. Besides, the monocyte transmigration entry in assay [2] (dose response, high concentrations (100 μM)) is “Total blocking”. In assay [2] (monocyte transmigration, read at 10, 15, 20 and 25 minutes), the “time of the maximal effect” value was 25 min.
Consider `COC(=O)c1cccc(COc2cccc(C=C3C(=O)NC(=O)NC3=O)c2)c1` [Formula 9, Methyl 3-((3-((2,4,6-trioxo-tetrahydropyrimidin-5(2H)-ylidene)methyl)phenoxy)methyl) benzoate], for which, in assay [2], the Monocyte adhesion result was “unaffected” and the “Level of Transmigration Blockage (%)” value turned out to be 98%. Besides, the inhibition at 30 µM in assay [2] (Homo sapiens, HUVEC) is greater than 90%.
On to `COC(=O)c1ccc(COc2cccc(C=C3C(=O)NC(=O)NC3=O)c2)cc1` [Formula 1, Methyl 4-((3-((2,4,6-trioxo-tetrahydropyrimidin-5(2H)-ylidene)methyl)phenoxy)methyl) benzoate], for which, in assay [2], the “Level of Transmigration Blockage (%)” value was 81%.
